Assay [1] has as its target T1, MAGL (Homo sapiens, UniProt Q99685).
T1 sequence (Q99685 1-303): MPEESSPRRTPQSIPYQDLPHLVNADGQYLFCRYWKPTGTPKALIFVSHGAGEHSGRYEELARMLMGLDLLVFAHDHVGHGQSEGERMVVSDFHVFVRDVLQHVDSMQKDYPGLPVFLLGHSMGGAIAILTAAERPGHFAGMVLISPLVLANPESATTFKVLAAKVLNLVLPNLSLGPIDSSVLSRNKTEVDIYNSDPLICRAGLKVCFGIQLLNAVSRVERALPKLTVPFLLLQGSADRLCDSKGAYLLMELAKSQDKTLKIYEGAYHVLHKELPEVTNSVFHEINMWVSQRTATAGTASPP
Put plainly: In vitro competitive activity-based protein profiling, MAGL, human. The conditions noted are these: for inhibition at 1 µM: read-out: MAGL % inh. 1 μM (human).

For assay [2], the target named is T2, MAGL (Mus musculus, UniProt O35678).
T2 sequence (O35678 1-303): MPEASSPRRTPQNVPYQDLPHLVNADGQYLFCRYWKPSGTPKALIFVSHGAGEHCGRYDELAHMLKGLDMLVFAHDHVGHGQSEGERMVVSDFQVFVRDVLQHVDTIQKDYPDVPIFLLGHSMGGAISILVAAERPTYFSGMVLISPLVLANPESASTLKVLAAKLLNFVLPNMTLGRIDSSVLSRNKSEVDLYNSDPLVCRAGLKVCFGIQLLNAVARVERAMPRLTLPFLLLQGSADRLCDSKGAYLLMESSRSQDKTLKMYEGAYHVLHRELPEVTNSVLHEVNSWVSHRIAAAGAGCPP
Put plainly: In vitro competitive activity-based protein profiling, MAGL, mouse. The conditions noted are these: read-out: MAGL % inh. 1 μM (mouse).

Regarding `C[C@H]1CN(Cc2cc(F)cc(Oc3ccccc3Cl)c2)CCN1C(=O)n1ccc(C(=O)O)n1` [Example 349, (S)-1-(4-(3-(2-chlorophenoxy)-5-fluorobenzyl)-2-methylpiperazine-1-carbonyl)-1H-pyrazole-3-carboxylic acid], the inhibition at 1 µM in assay [1] and in assay [2] was above 75% in each case.

For `O=C(O)c1ccn(C(=O)N2C[C@H]3C[C@H](Oc4cccc(C5CC5)c4)C[C@H]3C2)n1` [Example 219, 1-(trans-5-(3-cyclopropylphenoxy)octahydrocyclopenta [c]pyrrole-2-carbonyl)-1H-pyrazole-3-carboxylic acid], the inhibition at 1 µM in assay [1] and in assay [2] was above 75% in each case.

For `O=C(O)c1ccn(C(=O)N2C[C@H]3CN(Cc4ccc(Cl)c(-c5nccs5)c4)C[C@H]3C2)n1` [Example 315, 1-((3aR,6aS)-5-(4-chloro-3-(thiazol-2-yl)benzyl)octa-hydropyrrolo[3,4-c]pyrrole-2-carbonyl)-1H-pyrazole-3-carboxylic acid], the inhibition at 1 µM in assay [1] and in assay [2] was above 75% each time.

Regarding `O=C(O)c1ccn(C(=O)N2CCN(Cc3cccc(Oc4ccc(F)cn4)c3)CC2)n1` [Example 266, 1-(4-(3-((5-fluoropyridin-2-yl)oxy)benzyl)piper-azine-1-carbonyl)-1H-pyrazole-3-carboxylic acid], the inhibition at 1 µM in assay [1] and in assay [2] was above 75% in each case.

For the molecule `O=C(O)c1ccn(C(=O)N2CCC3(CCN(Cc4cc(Cl)ccc4N4CCC4)C3)CC2)n1` [Example 317, 1-(2-(2-(azetidin-1-yl)-5-chlorobenzyl)-2,8-diazaspiro[4.5]decane-8-carbonyl)-1H-pyrazole-3-carboxylic acid], the inhibition at 1 µM in assay [1] and in assay [2] was above 75% in each case.

Turning to `C[C@@H]1CN(Cc2ccc(F)c(Oc3ccccc3)c2)CCN1C(=O)n1ccc(C(=O)O)n1` [Example 294, (R)-1-(4-(4-fluoro-3-phenoxybenzyl)-2-methylpiperazine-1-carbonyl)-1H-pyrazole-3-carboxylic acid], the inhibition at 1 µM in assay [1] and in assay [2] was above 75% in each case.

As for `O=C(O)c1ccn(C(=O)N2C[C@H]3C[C@H](Oc4cccc(C5CCCC5)c4)C[C@H]3C2)n1` [Example 232, 1-(trans-5-(3-cyclopentylphenoxy)octahydrocyclopenta [c]pyrrole-2-carbonyl)-1H-pyrazole-3-carboxylic acid], the inhibition at 1 µM in assay [1] and in assay [2] was above 75% in each case.

As to `O=C(O)c1ccn(C(=O)N2CCN(Cc3ccc(N4CC5COCC5C4)cc3C(F)(F)F)CC2)n1` (stereo not shown) [Example 379, 1-(4-(4-(tetrahydro-1H-furo[3,4-c]pyrrol-5(3H)-yl)-2-(trifluoromethyl)benzyl)piperazine-1-carbonyl)-1H-pyrazole-3-carboxylic acid], the inhibition at 1 µM in assay [1] and in assay [2] was above 75% each time.

On to `O=C(O)c1nn(C(=O)N2CCN(Cc3cc(Cl)cc(-c4cncnc4)c3)CC2)cc1Cl` [Example 323, 4-chloro-1-(4-(3-chloro-5-(pyrimidin-5-yl)benzyl)piperazine-1-carbonyl)-1H-pyrazole-3-carboxylic acid], for which the inhibition at 1 µM in assay [1] and in assay [2] was above 75% in each case.

Take `Cc1ccc(C)c(CN2CCC3(CCN(C(=O)n4ccc(C(=O)O)n4)CC3)C2)c1` [Example 223, 1-(2-(2,5-dimethylbenzyl)-2,8-diazaspiro[4.5]decane-8-carbonyl)-1H-pyrazole-3-carboxylic acid]: the inhibition at 1 µM is above 75% in assay [1] and 0 to 25% in assay [2].

As to `O=C(O)c1ccn(C(=O)N2CCC(OCc3cc(Cl)ccc3C(F)(F)F)CC2)n1` [Example 277, 1-(4-((5-chloro-2-(trifluoromethyl)benzyl)oxy)piper-idine-1-carbonyl)-1H-pyrazole-3-carboxylic acid], the inhibition at 1 µM in assay [1] and in assay [2] was above 75% each time.

On to `O=C(O)c1ccn(C(=O)N2CCN(Cc3ccc(Cl)c(-c4nccs4)c3)CC2)n1` [Example 274, 1-(4-(4-chloro-3-(thiazol-2-yl)benzyl)piperazine-1-carbonyl)-1H-pyrazole-3-carboxylic acid], for which the inhibition at 1 µM in assay [1] and in assay [2] was above 75% throughout.

Take `O=C(O)c1ccn(C(=O)N2CCC3(CCN(Cc4ccc(Cl)c(N5CCOCC5)c4)C3)CC2)n1` [Example 372, 1-(2-(4-chloro-3-morpholinobenzyl)-2,8-diazaspiro[4.5]decane-8-carbonyl)-1H-pyrazole-3-carboxylic acid]: the inhibition at 1 µM in assay [1] lay in the range of 0 to 25%; in assay [2], 25 to 50%.

In the case of `O=C(O)c1ccn(C(=O)N2CCN(Cc3ccc(C(F)(F)F)cc3N3CC4CCC(C3)O4)CC2)n1` [Example 380, 1-(4-(2-(8-oxa-3-azabicylco[3.2.1]octan-3-yl)-4-(trifluoromethyl)benzyl)piperazine-1-carbonyl)-1H-pyrazole-3-carboxylic acid], the inhibition at 1 µM in assay [1] and in assay [2] was above 75% each time.

With `O=C(O)c1ccn(C(=O)N2CCN(Cc3cccc(Oc4cccc(C(F)(F)F)n4)c3)CC2)n1` [Example 353, 1-(4-(3-((6-(trifluoromethyl)pyridin-2-yl)oxy)benzyl)piper-azine-1-carbonyl)-1H-pyrazole-3-carboxylic acid], the inhibition at 1 µM in assay [1] and in assay [2] was above 75% in each case.

In the case of `O=C(O)c1ccn(C(=O)N2CCC3(CCN(C(=O)c4cc(Cl)ccc4C(F)(F)F)C3)CC2)n1` [Example 366, 1-(2-(5-chloro-2-(trifluoromethyl)benzoyl)-2,8-diazaspiro[4.5]decane-8-carbonyl)-1H-pyrazole-3-carboxylic acid], the inhibition at 10 µM in assay [1] (read-out: MAGL % inh. (human) at 10 uM) is above 75%. Besides, the inhibition at 1 µM in assay [2] was 0 to 25%.

Regarding `C[C@@H]1CN(Cc2cccc(Oc3ccc(Cl)cc3)c2)CCN1C(=O)n1ccc(C(N)=O)n1` [Example 310, (R)-1-(4-(3-(4-chlorophenoxy)benzyl)-2-methylpiperazine-1-carbonyl)-1H-pyrazole-3-carboxamide], the inhibition at 1 µM in assay [1] and in assay [2] was above 75% in each case.

Take `O=C(O)c1ccn(C(=O)N2CCC(OCc3ccc(Cl)c(C(F)(F)F)c3)CC2)n1` [Example 276, 1-(4-((4-chloro-3-(trifluoromethyl)benzyl)oxy)piper-idine-1-carbonyl)-1H-pyrazole-3-carboxylic acid]: the inhibition at 1 µM in assay [1] and in assay [2] was above 75% in each case.

For the molecule `O=C(O)c1ccn(C(=O)N2C[C@H]3C[C@H](Oc4cccc(N5CCCC5)c4)C[C@H]3C2)n1` [Example 234, 1-(trans-5-(3-(pyrrolidin-1-yl)phenoxy)octa-hydrocyclopenta[c]pyrrole-2-carbonyl)-1H-pyrazole-3-carboxylic acid], the inhibition at 1 µM in assay [1] and in assay [2] was above 75% in each case.

As for `C[C@@H]1CN(Cc2ccc(Cl)c(-c3nccs3)c2)CCN1C(=O)n1ccc(C(=O)O)n1` [Example 299, (R)-1-(4-(4-chloro-3-(thiazol-2-yl)benzyl)-2-methylpiperazine-1-carbonyl)-1H-pyrazole-3-carboxylic acid], the inhibition at 1 µM in assay [1] and in assay [2] was above 75% each time.

These data come from US10266497B2 (ABIDE THERAPEUTICS, INC., priority 2017, dated 2019).
